Assay results published in patent US8404664B2, “Phosphonated Rifamycins and uses thereof for the prevention and treatment of bone and joint infections” (Targanta Therapeutics, Inc., priority 2005, dated 2013).
In brackets after ≈: the same amount, converted by molar mass. Marks after values point to notes of the source that are not given here.

Columns and labels:
S. aureus ATCC 13709 [1] = assay: Antibacterial susceptibility (MIC), NCCLS broth microdilution; assay type: cell-based; conditions: for MIC: Staphylococcus aureus, ATCC13709, read-out: Minimum inhibitory concentration, S. aureus ATCC 13709
Protocol: (§1) Susceptibility of S. aureus strains to the known antibiotics and synthesized compounds was determined by following the guidelines set by NCCLS (M26-A). Compounds were diluted two-fold serially in DMSO and transferred to cation-adjusted Mueller Hinton broth (CAMHB; Becton Dickinson). 50 μL of compounds diluted in CAMHB was mixed with 100 μL of bacteria diluted in CAMHB in 96-well microtiter plates. The final concentration of micro-organisms in the assay was 5×10^5 c.f.u. per mL and the final concentration of DMSO in the assay was 1.25%. Assays were set up in duplicate and incubated at 37° C. for 18 h. The lowest concentration of compound that inhibited visible growth was reported as the minimum inhibitory concentration (MIC).

[2] = test system: S. aureus ATCC 43300 (Fluoroquinolone sensitive MRSA); assay: as above; assay type: cell-based; conditions: for MIC: Staphylococcus aureus, read-out: Minimum inhibitory concentration, S. aureus ATCC 43300
Protocol: as §1

[3] = test system: S. aureus BK85 (Fluoroquinolone resistant MRSA); assay: as above; assay type: cell-based; conditions: for MIC: Staphylococcus aureus, read-out: Minimum inhibitory concentration, S. aureus BK85
Protocol: as §1

S. aureus RN4220 = assay: as above; assay type: cell-based; conditions: CAMHB, 37° C., 18 h; for MIC: Staphylococcus aureus, RN4220, read-out: Minimum inhibitory concentration, S. aureus RN4220
Protocol: as §1

[4] = test system: E. coli LBB925 (tolC mutant); assay: as above; assay type: cell-based; conditions: for Minimum inhibitory concentration, E. coli LBB925: tolC mutant; for MIC: Escherichia coli, read-out: Minimum inhibitory concentration, E. coli LBB925
[5] = Regeneration of drug from bone powder-bound prodrug; assay type: in vitro ADME; conditions: for % Conversion of bone-bound prodrug to parent drug: 24 h incubation, 37° C.; for Impact of the medium on the rate of regeneration of parent drug (in words): serum compared to PBS
Protocol: Amounts of parent drug “regenerated” from the phosphonated prodrug were measured as follows. Washed bone powder-bound prodrugs from the above experiment were resuspended in 400 μL PBS+2% DMSO or in 400 μL 50% (v/v in PBS+2% DMSO) human or rat serum. The suspension was incubated overnight at 37° C., centrifuged at 13,000 rpm for 2 min and the supernatant was recovered. The amount of regenerated parent drug in the supernatant was determined by measurements using the microbiological assay that was previously described for the prodrugs themselves. The amount of prodrug was deduced from standard curves of known amounts of parent drug that were used as reference for each experiment.

[6] = test system: S. aureus ATCC 13709 Novobiocin resistant mutant (bone infection); assay: Prophylactic efficacy in rat model of S. aureus bone infection; assay type: in vivo; conditions: for Measured bacterial titer: rat tibia 24 h postinfection
Protocol: Specifically, a spontaneous Novobiocin resistant mutant strain of S. aureus ATCC 13709 (a clinical osteomyelitis isolate), was grown overnight at 37° C. in brain heart infusion broth (BHIB). After 16 h of growth, cells were subcultured into fresh BHIB and incubated for 4 to 5 h at 37° C. The cells were washed twice with phosphate-buffered saline (PBS) and resuspended in BHIB supplemented with 10% (vol./vol.) fetal bovine serum at a density of approximately 10^10 colony forming units (CFU)/ml (based upon turbidimetry). The suspension was aliquoted and a portion was used to check the CFU count. The culture was stored frozen (−80° C.) and was used without subculture. For use as an inoculum the culture was thawed, diluted in PBS and kept in an ice bath until it was used.
Animals were infected as described by O'Reilly et al. (Antimicrobial Agents and Chemotherapy (1992), 36(12): 2693-97) to generate the bone infection. Female CD rats (age, 57 to 70 days; n=5/group; Charles River, St-Constant, Canada) were anaesthetized by isofluorane before and during the surgery. Following complete induction of anesthesia, the rat was placed ventral side up and hair was shaved from the surgical site. The skin over the leg was cleaned and disinfected (proviodine-ethanol 70%). A longitudinal incision below the knee joint was made in the sagital plane. The incision was made over the bone below the “knee joint” (tibia head or condyle) but not completely extending to the ankle. A high speed drill fitted with a 2 mm bulb bit was used to drill a hole into the medullar cavity of the tibia. Rats were injected intra-tibially with 0.05 ml 5% sodium morrhuate (sclerosing agent) and then with 0.05 ml of S. aureus suspension (ca. 2×10^7 CFU/rat). The hole was sealed by applying a small amount of dry dental cement which immediately absorbs fluids and adheres to the site. The wound was closed using 3 metal skin clips. Moxifloxacin (as a positive control) was injected once at 10 mg/kg intravenously 1 h postinfection in saline, while the Rifamycin derived prodrugs (prepared in 0.9% saline) were injected at the dose indicated in Table 3 as a single intravenous bolus at different time points prior to the infection.
Infected rats were sacrificed by CO2 asphyxiation 24 h postinfection to monitor the bacterial CFU count. Infected tibiae were removed, dissected free of soft tissue, and weighed. The bones were ground, resuspended in 5 ml 0.9% NaCl, serially diluted and processed for quantitative cultures. For compounds 50, 68 and 81, 1 ml of the 0.9% NaCl solution was added to 50 mg of charcoal before serial dilutions. Treatment efficacy was measured in terms of Log viable bacteria (Log CFU per gram of bone). […] The limit of detection is 2 Log CFU. […] Differences were considered significant when the P value was <0.05 when comparing treated infected animals to the untreated infected ones. The doses used, the amount of time separating the treatment from the time of infection and the treatment outcomes are shown in Table 3.

[7] = test system: S. aureus ATCC 13709 Novobiocin and Rifampicin resistant variant; assay: microbe, parasite or virus in culture; assay type: cell-based; conditions: for Minimum inhibitory concentration, S. aureus ATCC 13709 variant: Novobiocin and Rifampicin resistant variant; for MIC: Staphylococcus aureus, ATCC13709, read-out: Minimum inhibitory concentration, S. aureus ATCC 13709 variant
Protocol: as §1

S. aureus ATCC 13709 [8] = assay: Antibacterial susceptibility (MIC) in the presence of serum; assay type: cell-based; conditions: for MIC: Staphylococcus aureus, ATCC13709, 18 h
Protocol: as §1
Susceptibility testing experiments were also carried out in the presence of serum.
These experiments were carried out similar to the susceptibility testing with the following modifications. 75 μL of compounds diluted in CAMHB was mixed with 75 μL of bacteria diluted in 100% serum from any given source (commercial pooled mouse serum (MS) and human serum (HS), Equitech-Bio Inc.) or diluted in 8% purified human serum albumin (HSA) (Calbiochem). The final concentration of animal serum in the assay was 50% and the final concentration of purified human serum albumin in the assay was 4%; the concentrations of all other components were identical to those described for susceptibility testing.

[9] = single dose 20 mg/kg parent drug equivalent, 3 days prior to infection
[10] = read-out: Minimum inhibitory concentration, S. aureus ATCC 13709 + 50% Human Serum
[11] = read-out: Minimum inhibitory concentration, S. aureus ATCC 13709 + 50% Mouse Serum
[12] = read-out: Minimum inhibitory concentration, S. aureus ATCC 13709 + 50% Rat Serum

Row | Structure (SMILES) | Minimum inhibitory concentration, S. aureus ATCC 13709 (S. aureus ATCC 13709 [1]) | Minimum inhibitory concentration, S. aureus ATCC 43300 [2] | Minimum inhibitory concentration, S. aureus BK85 [3] | Minimum inhibitory concentration, S. aureus RN4220 (S. aureus RN4220) | Minimum inhibitory concentration, E. coli LBB925 [4] | Regeneration of parent drug once bound to bone (in words) [5] | % Conversion of bone-bound prodrug to parent drug ([5]; 50% Rat Serum) | % Conversion of bone-bound prodrug to parent drug ([5]; PBS) | Impact of the medium on the rate of regeneration of parent drug (in words) [5] | Activity against the Rifampicin resistant variant of S. aureus ATCC13709 (in words) [7] | Minimum inhibitory concentration, S. aureus ATCC 13709 variant [7] | Minimum inhibitory concentration, S. aureus ATCC 13709 + 50% Human Serum (S. aureus ATCC 13709 [8]) | Minimum inhibitory concentration, S. aureus ATCC 13709 + 50% Mouse Serum (S. aureus ATCC 13709 [8]) | Minimum inhibitory concentration, S. aureus ATCC 13709 + 50% Rat Serum (S. aureus ATCC 13709 [8]) | Measured bacterial titer [6, 9] | MIC (S. aureus ATCC 13709 [1]) | MIC [2] | MIC [3] | MIC (S. aureus RN4220) | MIC [7] | also measured
1 | CO[C@H]1/C=C/O[C@@]2(C)Oc3c(C)c(O)c4c(c3C2=O)C2=NC3(CCN(CC(C)C)CC3)NC2=C(NC(=O)/C(C)=C\C=C\[C@H](C)[C@H](OC(=O)CNC(=O)CC(P(=O)(O)O)P(=O)(O)O)[C@@H](C)[C@@H](O)[C@@H](C)[C@H](OC(C)=O)[C@@H]1C)C4=O [Compound 21, 21-O-(N-(3,3-Bisphosphonopropanoyl)-glycinoyl)-1′,4-didehydro-1-deoxy-1,4-dihydro-5′-(2-methylpropyl)-1-oxorifamycin XIV] | 16 µg/mL (≈ 14.3 µM) | 16 µg/mL (≈ 14.3 µM) | 16 µg/mL (≈ 14.3 µM) | 32 µg/mL (≈ 28.6 µM) | >128 µg/mL | not able to regenerate | 0.02% | <lod | not significantly impacted | – | – | – | – | – | – | – | – | – | – | – | Prophylactic effect (in words) ([6]; rat bone infection, doses and times of Table 3, t-test p<0.05): lacks efficacy; Measured bacterial titer ([6]; single dose 12 mg/kg parent drug equivalent, 1 day prior to infection): 6.59 ± 0.90 Log CFU/g of bone
2 | CCN(CC)CC.CCN(CC)CC.CO[C@H]1/C=C/O[C@@]2(C)Oc3c(C)c(O)c4c(c3C2=O)C2=NC3(CCN(CC(C)C)CC3)N(C(=O)OCOC(=O)CCCC(P(=O)(O)O)P(=O)(O)O)C2=C(NC(=O)/C(C)=C\C=C\[C@H](C)[C@H](O)[C@@H](C)[C@@H](O)[C@@H](C)[C@H](OC(C)=O)[C@@H]1C)C4=O [Compound 50] | 0.25 µg/mL | 0.25 µg/mL | 0.25 µg/mL | 0.25 µg/mL | 16 µg/mL | – | 2.68% | 2.65% | not significantly impacted | complete lack of activity | >128 µg/mL | 0.125 µg/mL | 0.125 µg/mL | 0.032 µg/mL | 6.31 ± 0.82 Log CFU/g of bone | – | – | – | – | – | Impact of serum on the MICs (in words) (S. aureus ATCC 13709 [8]): no impact
3 | CO[C@H]1/C=C/O[C@@]2(C)Oc3c(C)c(O)c4c(=O)c(c5oc6cc(N7CCC(O)CC7)cc(O)c6nc-5c4c3C2=O)NC(=O)/C(C)=C\C=C\[C@H](C)[C@H](O)[C@@H](C)[C@@H](O)[C@@H](C)[C@H](OC(C)=O)[C@@H]1C [Compound 63, 1′,4-Didehydro-1-deoxy-1,4-dihydro-3′-hydroxy-5′-[4-hydroxy-1-piperidinyl]-1-oxorifamycin VIII] | – | – | – | – | – | – | – | – | – | – | – | – | – | – | 2.84 ± 0.93 Log CFU/g of bone | 0.00048 µg/mL (≈ 0.000533 µM) | 0.00048 µg/mL (≈ 0.000533 µM) | 0.00048 µg/mL (≈ 0.000533 µM) | 0.00048 µg/mL (≈ 0.000533 µM) | 2 µg/mL (≈ 2.22 µM) | MIC (S. aureus ATCC 13709 [8]; [10]): 0.0078 µg/mL; MIC (S. aureus ATCC 13709 [8]; [11]): 0.0156 µg/mL; MIC (S. aureus ATCC 13709 [8]; [12]): 0.032 µg/mL; MIC [4]: 8 µg/mL (≈ 8.89 µM)
4 | CO[C@H]1/C=C/O[C@@]2(C)Oc3c(C)c(O)c4c(=O)c(c5oc6cc(N7CCN(CC(C)C)CC7)cc(O)c6nc-5c4c3C2=O)NC(=O)/C(C)=C\C=C\[C@H](C)[C@H](OC(=O)COC(=O)CCC(=O)NC(P(=O)(O)O)P(=O)(O)O)[C@@H](C)[C@@H](O)[C@@H](C)[C@H](OC(C)=O)[C@@H]1C [Compound 84, 21-O-(2-((3-(bisphosphonomethyl)carbamoyl)propanoyloxy)acetyl)-1′,4-Didehydro-1-deoxy-1,4-dihydro-3′-hydroxy-5′-[4-(2-methylpropyl)-1-piperazinyl]-1-oxorifamycin VIII] | 1 µg/mL (≈ 0.786 µM) | 1 µg/mL (≈ 0.786 µM) | 1 µg/mL (≈ 0.786 µM) | 1 µg/mL (≈ 0.786 µM) | >128 µg/mL | not able to regenerate | 0.12% | <lod | significant acceleration | complete lack of activity | >128 µg/mL | 16 µg/mL | 16 µg/mL | 1 µg/mL | – | – | – | – | – | – | –
5 | CO[C@H]1/C=C/O[C@@]2(C)Oc3c(C)c(O)c4c(=O)c(c5oc6cc(N7CCN(CC(C)C)CC7)cc(O)c6nc-5c4c3C2=O)NC(=O)/C(C)=C\C=C\[C@H](C)[C@H](O)[C@@H](C)[C@@H](O)[C@@H](C)[C@H](OC(C)=O)[C@@H]1C [Rifalazil, 1′,4-Didehydro-1-deoxy-1,4-dihydro-3′-hydroxy-5′-[4-(2-methylpropyl)-1-piperazinyl]-1-oxorifamycin VIII, reference compound] | – | – | – | – | – | – | – | – | – | – | – | – | – | – | 4.08 ± 1.53^a Log CFU/g of bone | 0.001 µg/mL (≈ 0.00106 µM) | 0.001 µg/mL (≈ 0.00106 µM) | 0.001 µg/mL (≈ 0.00106 µM) | 0.00048 µg/mL (≈ 0.00051 µM) | 16 µg/mL (≈ 17 µM) | MIC (S. aureus ATCC 13709 [8]; [10]): 0.032 µg/mL; MIC (S. aureus ATCC 13709 [8]; [11]): 0.032 µg/mL; MIC (S. aureus ATCC 13709 [8]; [12]): 0.0078 µg/mL; MIC [4]: 16 µg/mL (≈ 17 µM); Measured bacterial titer ([6]; single dose 10 mg/kg parent drug equivalent, 3 days prior to infection): 2.21 ± 0.34 Log CFU/g of bone
